From ChEMBL document CHEMBL1201862, “PubChem BioAssay data set” (2004) come the findings set out here.

By EC50 is commonly meant the concentration at which the effect is half-maximal. The IC50 is the concentration that gives 50% inhibition. In general, AC50 refers to the midpoint of the concentration-response curve, whichever way the signal moves.

The source made the active and inactive calls.

Test [1] in a line: NIH-3T3 fibroblast cytotoxicity, dose response, cytotoxicity control, cell-based, fluorescence, Alamar Blue, secondary assay (AID 2327).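 Further: NIH-3T3 mouse fibroblasts cultured with fluconazole at 8 µg/mL.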 It counts as functional. For orientation: Resazurin is reduced to fluorescent resorufin, in cell work by metabolically active cells.
Test [2] in a line: luciferase reporter signal suppression in cells – H4 neuroglioma cells, luminescence, dose response (AID 1990). The test is classed as functional, cell-based.
Test [3] has as its target T1, Neuropeptide Y receptor type 2 (Homo sapiens, UniProt P49146).
T1 sequence (P49146 whole entry): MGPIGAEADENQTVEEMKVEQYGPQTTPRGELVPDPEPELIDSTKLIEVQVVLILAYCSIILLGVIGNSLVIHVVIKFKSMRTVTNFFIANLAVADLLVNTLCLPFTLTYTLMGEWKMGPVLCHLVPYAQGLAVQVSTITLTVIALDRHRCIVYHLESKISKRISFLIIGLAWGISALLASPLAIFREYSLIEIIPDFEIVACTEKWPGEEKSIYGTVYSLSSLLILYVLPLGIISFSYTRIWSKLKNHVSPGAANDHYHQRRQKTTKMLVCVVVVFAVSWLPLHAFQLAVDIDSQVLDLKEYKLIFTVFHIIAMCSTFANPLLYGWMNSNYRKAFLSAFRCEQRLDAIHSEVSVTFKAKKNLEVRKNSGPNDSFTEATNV
The experiment in a line: IC50 for human NPY-Y2 blockade – cell-based, counter-screen for NPY-Y1 antagonist project, dose response (AID 1278). The test is classed as functional.

Test [4] in a line: Luminescence Cell-Based Dose Response HTS to Identify Inhibitors of 5'UTR Stem-Loop Driven Prion Protein mRNA Translation in H4 Neuroglioblastoma Cells. [Related pubchem assays: 1827 (Project Summary), 1813 (Primary HTS)]. It counts as functional.
Test [5] in a line: alpha-synuclein stem-loop luciferase translation blockers – H4 neuroglioma cells, luminescence, confirmation (AID 1988). The test is classed as functional, cell-based.
Test [6] is described as follows: fluconazole-exposed Candida albicans growth modulators – fluorescence, retest, confirmation (AID 2467). The test is classed as functional, cell-based.
In test [7] the target is T2, Neuropeptide Y receptor type 1 (Homo sapiens, UniProt P25929).
T2 sequence (P25929 whole entry): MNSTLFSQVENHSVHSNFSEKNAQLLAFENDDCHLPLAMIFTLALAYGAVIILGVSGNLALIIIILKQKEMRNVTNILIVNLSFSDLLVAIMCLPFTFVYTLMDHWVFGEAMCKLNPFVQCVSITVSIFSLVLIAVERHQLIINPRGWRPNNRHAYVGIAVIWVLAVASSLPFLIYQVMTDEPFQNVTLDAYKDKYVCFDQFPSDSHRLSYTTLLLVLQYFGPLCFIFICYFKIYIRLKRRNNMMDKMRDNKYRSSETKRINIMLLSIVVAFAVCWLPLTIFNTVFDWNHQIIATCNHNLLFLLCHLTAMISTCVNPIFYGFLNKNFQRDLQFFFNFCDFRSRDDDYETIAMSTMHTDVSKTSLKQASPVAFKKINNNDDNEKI
Description: IC50 of human NPY-Y1 blockers – cell-based, dose response (AID 1277). The test is classed as functional.

A short description of test [8]: Trypanosoma cruzi growth suppression in host cells – NIH3T3 host cells, beta-gal luminescence, confirmation (AID 2044).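 Further: intracellular parasites grown in NIH/3T3 mouse fibroblasts as host cells; luminescent beta-galactosidase reporter signal from transgenic T. cruzi replicating inside host cells; inhibitors lower the luminescence signal.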 The test is classed as functional, cell-based.
For test [9], the target named is T3, Serine/threonine-protein phosphatase (Candida dubliniensis (strain CD36 / CBS 7987 / NCPF 3949 / NRRLY-17841) (Yeast), UniProt B9W6M3).
T3 sequence (B9W6M3 whole entry): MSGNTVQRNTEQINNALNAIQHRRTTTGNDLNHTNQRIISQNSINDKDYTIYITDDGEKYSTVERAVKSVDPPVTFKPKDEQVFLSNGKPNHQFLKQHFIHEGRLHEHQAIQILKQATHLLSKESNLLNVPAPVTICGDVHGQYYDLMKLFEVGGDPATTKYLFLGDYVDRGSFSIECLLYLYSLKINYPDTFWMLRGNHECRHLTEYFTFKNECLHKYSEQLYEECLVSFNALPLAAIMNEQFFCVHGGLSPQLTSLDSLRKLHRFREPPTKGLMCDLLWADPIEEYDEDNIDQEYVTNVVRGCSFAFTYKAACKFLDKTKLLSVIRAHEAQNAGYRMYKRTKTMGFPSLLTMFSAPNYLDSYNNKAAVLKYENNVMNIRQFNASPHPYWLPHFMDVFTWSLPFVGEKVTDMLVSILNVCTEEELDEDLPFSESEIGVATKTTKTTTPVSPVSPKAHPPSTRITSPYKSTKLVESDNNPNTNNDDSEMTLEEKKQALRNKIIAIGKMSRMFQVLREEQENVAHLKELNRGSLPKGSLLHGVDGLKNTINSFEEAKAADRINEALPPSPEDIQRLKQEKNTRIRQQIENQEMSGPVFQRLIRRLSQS
Description: blockers of CaCl2-induced CDRE-lacZ signaling – S. cerevisiae, luminescence, secondary, dose response (AID 2388).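 Further: yeast reporter cells carrying a calcineurin-responsive lacZ construct stimulated with calcium chloride; luminescent beta-galactosidase reporter signal in whole cells rather than isolated phosphatase activity; potency for inhibition where a drop in reporter signal means calcineurin blockade.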 The test is classed as functional, cell-based.

Test [10] in a line: NIH3T3 cell viability loss – ATP luminescence, mouse fibroblasts, counter-screen, dose response (AID 2010).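 Further: cells exposed to compound for about 90 hours before reading.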 It counts as functional, cell-based. In general terms: A counterscreen serves to expose hits that act by an unwanted route or on another target.
Test [11] addresses ATP-dependent molecular chaperone HSP82 (Candida albicans (strain WO-1) (Yeast), UniProt C4YTQ8). The experiment in a line: steroid-induced GRE reporter decrease in yeast – S. cerevisiae, luminescence, Hsp90 inhibitor project, dose response (AID 2400).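 Further: beta-galactosidase luminescence from glucocorticoid response element reporter as proxy for Hsp90 function; inhibitor potency where signal loss means Hsp90 inhibition.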 It counts as functional, cell-based.
For test [12], the target named is T4, Galanin receptor type 3 (Homo sapiens, UniProt O60755).
T4 sequence (O60755 whole entry): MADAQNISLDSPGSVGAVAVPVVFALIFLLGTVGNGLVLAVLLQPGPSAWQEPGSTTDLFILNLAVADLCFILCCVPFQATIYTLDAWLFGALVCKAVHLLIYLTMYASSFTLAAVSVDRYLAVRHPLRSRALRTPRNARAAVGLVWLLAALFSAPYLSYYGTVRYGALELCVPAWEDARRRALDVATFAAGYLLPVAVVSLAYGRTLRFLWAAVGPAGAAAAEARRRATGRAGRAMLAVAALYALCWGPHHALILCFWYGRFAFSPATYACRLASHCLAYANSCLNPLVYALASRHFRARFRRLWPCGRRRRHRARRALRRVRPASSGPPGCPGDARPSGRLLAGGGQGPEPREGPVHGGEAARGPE
The experiment in a line: Fluorescence-based cell-based primary high throughput dose response assay to identify antagonists of the Galanin Receptor 3 (GalR3). It counts as functional.

The nature of test [13]: cells. The test is classed as functional, cell-based. Conditions: HEK-CNG.
Test [14] addresses T5, DNA repair protein RAD52 homolog (Homo sapiens, UniProt P43351).
T5 sequence (P43351 whole entry): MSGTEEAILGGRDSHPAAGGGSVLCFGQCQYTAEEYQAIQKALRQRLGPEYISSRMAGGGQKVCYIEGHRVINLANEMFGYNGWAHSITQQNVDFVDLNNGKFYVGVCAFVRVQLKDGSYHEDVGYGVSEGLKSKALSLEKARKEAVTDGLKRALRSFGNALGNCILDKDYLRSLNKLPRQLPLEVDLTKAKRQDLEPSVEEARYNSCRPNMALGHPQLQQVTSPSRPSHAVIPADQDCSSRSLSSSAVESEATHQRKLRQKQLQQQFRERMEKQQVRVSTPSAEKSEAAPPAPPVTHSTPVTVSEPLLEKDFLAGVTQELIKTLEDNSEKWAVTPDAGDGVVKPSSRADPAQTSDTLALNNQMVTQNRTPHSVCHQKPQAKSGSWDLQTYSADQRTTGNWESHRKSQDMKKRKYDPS
It counts as functional, biochemical.

A short description of test [15]: viability loss in HepG2 liver cells – cell-based, ATP luminescence, cherry-pick, set 6, cytotoxicity control, dose response (AID 1053125). It counts as functional.
Test [16] can be described thus: cells.
The nature of test [17]: cells. Conditions: A549.
Test [18] can be described thus: cells. Conditions: HEK293.

ATP-dependent molecular chaperone HSP82, sequence (C4YTQ8 whole entry): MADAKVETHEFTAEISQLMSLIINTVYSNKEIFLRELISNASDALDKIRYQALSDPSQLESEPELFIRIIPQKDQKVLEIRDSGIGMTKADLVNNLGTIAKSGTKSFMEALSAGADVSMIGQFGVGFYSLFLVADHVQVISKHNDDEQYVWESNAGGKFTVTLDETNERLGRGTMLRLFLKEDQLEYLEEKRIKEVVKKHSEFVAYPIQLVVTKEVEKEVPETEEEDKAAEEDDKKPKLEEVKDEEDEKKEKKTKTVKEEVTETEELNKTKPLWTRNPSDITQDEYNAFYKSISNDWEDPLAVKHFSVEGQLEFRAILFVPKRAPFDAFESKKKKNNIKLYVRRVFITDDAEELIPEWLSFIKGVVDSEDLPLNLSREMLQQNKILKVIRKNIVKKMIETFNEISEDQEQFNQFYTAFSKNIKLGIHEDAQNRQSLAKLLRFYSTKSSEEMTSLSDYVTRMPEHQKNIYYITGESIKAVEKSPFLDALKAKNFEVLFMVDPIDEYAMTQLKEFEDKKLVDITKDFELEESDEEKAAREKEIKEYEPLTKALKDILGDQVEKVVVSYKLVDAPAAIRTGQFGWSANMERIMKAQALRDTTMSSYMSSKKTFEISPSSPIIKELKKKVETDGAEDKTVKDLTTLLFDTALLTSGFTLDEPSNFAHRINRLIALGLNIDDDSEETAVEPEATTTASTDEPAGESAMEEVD

With `CC[n+]1c(/C=C2\SC(c3ccccc3C)=CN2C)sc2ccccc21`, the EC50 was > 150 µM (inactive) in [1]; 8.74 µM (active) in test [2]; 8.01 µM (active) in test [4]; 0.619 µM (active) in [5]; 0.212 µM (active) in [6]; < 0.1 µM (active) in [8]. Besides, the EC50 was > 180 µM (inactive) in test [9]; 7.48 µM (active) in [10]; > 150 µM (inactive) in [11]; > 29.9 µM (inactive) in test [13]; 0.021 µM (active) in [16]. Further, the IC50 in test [3] is 29.6 µM (not active); in test [7] it was 6.98 µM (active); in [12], 0.404 µM (active). The AC50 in test [14] is 8.2 µM (active); in test [15], 2.18 µM (active); in test [17] it was 2.44 µM (active); in test [18] it was 2.77 µM (active).
